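Method: 48-hour compound exposure of cells in 96-well plates, five concentrations, linear interpolation of endpoints. GI50 is the concentration that inhibits growth by half. TGI denotes the concentration required for complete inhibition of growth.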
Assays:
Experiment in all cases: NCI tumour cell line growth inhibition, 48 h
[1] = tested on: SW-620 colon
[2] = tested on: SNB-19 CNS
[3] = tested on: A549 NSCLC
[4] = tested on: RXF-631 renal
[5] = tested on: CAKI-1 renal
[6] = tested on: HCT-116 colon
[7] = tested on: MALME-3M melanoma
[8] = tested on: NCI-H522 lung
[9] = tested on: M14 melanoma
[10] = tested on: SK-MEL-5 melanoma
[11] = tested on: LXFL 529 NSCLC
[12] = tested on: KM20L2 colon
[13] = tested on: NCI-H460 lung
[14] = tested on: UACC-62 melanoma
[15] = tested on: DLD-1 colon
[16] = tested on: HCT-15 colon
[17] = tested on: IGROV1 ovarian
[18] = tested on: NCI-H226 lung
[19] = tested on: TK-10 renal
[20] = tested on: RPMI-8226 leukemia
[21] = tested on: LOX IMVI melanoma
[22] = tested on: SK-OV-3 ovarian
[23] = tested on: HOP-18 NSCLC
[24] = tested on: HOP-92 NSCLC
[25] = tested on: COLO 205 colon
[26] = tested on: OVCAR-8 ovarian
[27] = tested on: A498 renal
[28] = tested on: SK-MEL-28 melanoma
[29] = tested on: HOP-62 NSCLC
[30] = tested on: M19-MEL melanoma
[31] = tested on: NCI-H23 lung
[32] = tested on: K-562 leukemia
[33] = tested on: DMS 114 small cell lung
[34] = tested on: OVCAR-4 ovarian
[35] = tested on: U251 CNS
[36] = tested on: HL-60(TB) leukemia
[37] = tested on: KM12 colon
[38] = tested on: SK-MEL-2 melanoma
[39] = tested on: UACC-257 melanoma
[40] = tested on: MOLT-4 leukemia
[41] = tested on: RXF 393 renal
[42] = tested on: OVCAR-3 ovarian
[43] = tested on: HT29 colon
[44] = tested on: ACHN renal
[45] = tested on: CCRF-CEM leukemia
[46] = tested on: SN12C renal
[47] = tested on: UO-31 renal
[48] = tested on: SNB-75 CNS
[49] = tested on: DMS 273 small cell lung
[50] = tested on: SF-268 CNS
[51] = tested on: 786-0 renal
[52] = tested on: XF 498 CNS
[53] = tested on: SNB-78 CNS
[54] = tested on: SF-539 CNS
[55] = tested on: HCC-2998 colon
[56] = tested on: SR leukemia
[57] = tested on: SF-295 CNS
[58] = tested on: EKVX NSCLC
[59] = tested on: OVCAR-5 ovarian
[60] = tested on: P388 leukemia

Compound: COc1cc2c(cc1OC)C(C(=O)c1cccc(OC)c1OC)C(=O)N(C)CC2 (stereo not given)
- TGI [1]: > 100 µM
- TGI [2]: > 100 µM
- TGI [3]: > 100 µM
- TGI [4]: > 100 µM
- TGI [5]: > 100 µM
- TGI [6]: > 100 µM
- TGI [7]: > 100 µM
- TGI [8]: > 100 µM
- TGI [9]: > 100 µM
- TGI [10]: > 100 µM
- TGI [11]: > 100 µM
- TGI [12]: > 100 µM
- TGI [13]: > 100 µM
- TGI [14]: > 100 µM
- TGI [15]: > 100 µM
- TGI [16]: > 100 µM
- TGI [17]: > 100 µM
- TGI [18]: > 100 µM
- TGI [19]: > 100 µM
- TGI [20]: > 100 µM
- TGI [21]: > 100 µM
- TGI [22]: > 100 µM
- TGI [23]: > 100 µM
- TGI [24]: > 100 µM
- TGI [25]: > 100 µM
- TGI [26]: > 100 µM
- TGI [27]: > 100 µM
- TGI [28]: > 100 µM
- TGI [29]: > 100 µM
- TGI [30]: > 100 µM
- TGI [31]: > 100 µM
- TGI [32]: > 100 µM
- TGI [33]: > 100 µM
- TGI [34]: > 100 µM
- TGI [35]: > 100 µM
- TGI [36]: > 100 µM
- TGI [37]: > 100 µM
- TGI [38]: > 100 µM
- TGI [39]: > 100 µM
- TGI [40]: > 100 µM
- TGI [41]: > 100 µM
- TGI [42]: > 100 µM
- TGI [43]: > 100 µM
- TGI [44]: > 100 µM
- TGI [45]: > 100 µM
- TGI [46]: > 100 µM
- TGI [47]: > 100 µM
- TGI [48]: > 100 µM
- TGI [49]: > 100 µM
- TGI [50]: > 100 µM
- TGI [51]: > 100 µM
- TGI [52]: > 100 µM

Compound: Cc1cn(C2CC(N(C)C)C(CO)O2)c(=O)[nH]c1=O (stereo not given)
- TGI [53]: > 100 µM
- TGI [4]: > 100 µM
- TGI [5]: > 100 µM
- TGI [6]: > 100 µM
- TGI [7]: > 100 µM
- TGI [8]: > 100 µM
- TGI [9]: > 100 µM
- TGI [11]: > 100 µM
- TGI [14]: > 100 µM
- TGI [15]: > 100 µM
- TGI [17]: > 100 µM
- TGI [18]: > 100 µM
- TGI [54]: > 100 µM
- TGI [20]: > 100 µM
- TGI [22]: > 100 µM
- TGI [24]: > 100 µM
- TGI [25]: > 100 µM
- TGI [27]: > 100 µM
- TGI [28]: > 100 µM
- TGI [29]: > 100 µM
- TGI [30]: > 100 µM
- TGI [31]: > 100 µM
- TGI [32]: > 100 µM
- TGI [33]: > 100 µM
- TGI [34]: > 100 µM
- TGI [36]: > 100 µM
- TGI [38]: > 100 µM
- TGI [40]: > 100 µM
- TGI [55]: > 100 µM
- TGI [44]: > 100 µM
- TGI [56]: > 100 µM
- TGI [45]: > 100 µM
- TGI [46]: > 100 µM
- TGI [47]: > 100 µM
- TGI [48]: > 100 µM
- TGI [49]: > 100 µM
- TGI [50]: > 100 µM
- TGI [51]: > 100 µM
- TGI [52]: > 100 µM

Compound: Cc1nc(C(N)=S)sc1C(=O)/C=C/c1c(O)ccc2ccccc12
- TGI [53]: > 100 µM
- TGI [1]: > 100 µM
- TGI [57]: > 100 µM
- TGI [2]: > 100 µM
- TGI [3]: > 100 µM
- TGI [4]: > 100 µM
- TGI [5]: > 100 µM
- TGI [6]: > 100 µM
- TGI [7]: > 100 µM
- TGI [8]: > 63 µM
- TGI [9]: > 100 µM
- TGI [10]: > 100 µM
- TGI [11]: > 100 µM
- TGI [12]: > 100 µM
- TGI [13]: > 100 µM
- TGI [14]: > 87.9 µM
- TGI [15]: > 100 µM
- TGI [16]: > 100 µM
- TGI [17]: > 100 µM
- TGI [18]: > 100 µM
- TGI [54]: > 100 µM
- TGI [19]: > 100 µM
- TGI [20]: > 93.5 µM
- TGI [58]: > 100 µM
- TGI [21]: 73.6 µM
- TGI [22]: > 100 µM
- TGI [23]: > 100 µM
- TGI [24]: > 100 µM
- TGI [25]: > 100 µM
- TGI [26]: > 100 µM
- TGI [27]: > 100 µM
- TGI [28]: > 100 µM
- TGI [29]: > 100 µM
- TGI [30]: 19 µM
- TGI [31]: > 100 µM
- TGI [32]: > 64.7 µM
- TGI [33]: 98.1 µM
- TGI [34]: > 100 µM
- TGI [35]: > 100 µM
- TGI [36]: 65.3 µM
- TGI [37]: > 93.1 µM
- TGI [38]: > 100 µM
- TGI [39]: > 100 µM
- TGI [40]: > 69 µM
- TGI [41]: 98.5 µM
- TGI [42]: > 84.3 µM
- TGI [59]: > 100 µM
- TGI [43]: > 100 µM
- TGI [55]: > 100 µM
- TGI [44]: > 100 µM
- TGI [45]: 54.5 µM
- TGI [46]: > 100 µM
- TGI [47]: > 100 µM
- TGI [48]: > 100 µM
- TGI [49]: > 100 µM
- TGI [50]: > 100 µM
- TGI [51]: > 100 µM
- TGI [52]: > 100 µM

Compound: CCc1c2c(nc3ccc(OC(=O)N4CCC(N5CCCCC5)CC4)cc13)-c1cc3c(c(=O)n1C2)COC(=O)[C@]3(O)CC
- GI50 [53]: 53.7 µM
- TGI [53]: > 100 µM
- GI50 [60]: 10.1 µM
- TGI [60]: 40.2 µM
- GI50 [12]: 17.2 µM
- TGI [12]: 66.3 µM
